According to patent publication US20220402948A1, “EGFR INHIBITOR, COMPOSITION AND PREPARATION METHOD THEREFOR” (BETTA PHARMACEUTICALS CO., LTD., priority 2019, published 2022):
Where two headings read alike, the source gives them in different places.

Assays:
[1] = test system: A431; assay: A431 cell proliferation assay (CellTiter Glo, 72 hours); type: cell-based; settings: cell proliferation, A431, 72 hours, Table 2, read-out: A431 IC50
In short: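 A431 cells (2000/well) exposed 72 h to compound at 1000 nM down to 0.2 nM in 3-fold steps, 0.1% DMSO (0.5% for some series). Viability by CellTiter-Glo luminescence; IC50 by four-parameter nonlinear regression.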

[2] = target: EGFR WT (Homo sapiens, UniProt P00533); assay: EGFR WT kinase test (mobility variation analysis, Caliper EZ Reader); type: biochemical; settings: kinase enzymatic activity, Table 1
In short: (§1)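 Kinase pre-incubated with compound 10 minutes at room temperature, then ATP plus peptide substrate added; substrate conversion read by mobility shift after stop solution. Percent inhibition normalized to no-compound and no-enzyme controls; IC50 from variable-slope log(inhibitor) fit.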

[3] = target: IGF1R (Homo sapiens, UniProt P08069); assay: IGF1R kinase test (mobility variation analysis, Caliper EZ Reader); type: biochemical; settings: kinase enzymatic activity, Table 1; read-out: EGFR IGF1R IC50
In short: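 Kinase preincubated 10 min at room temperature with compound (10-point 3-fold series, top 3000 nM), then ATP and substrate added and reacted at room temperature. Substrate conversion read by mobility-shift (Caliper EZ Reader); % inhibition vs no-enzyme and no-compound controls fitted to variable-slope curve for IC50.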

[4] = target: EGFRΔ19del/T790M/C797S (Homo sapiens, UniProt P00533, T790M/C797S, form not given); assay: EGFR Δ19del/T790M/C797S kinase test (mobility variation analysis, Caliper EZ Reader); type: biochemical; settings: kinase enzymatic activity, Table 1
In short: as §1

[5] = target: Ba/F3 cells with EGFR Δ19del/T790M/C797S mutation gene stably overexpressed (Homo sapiens, UniProt P00533, T790M/C797S, cells depend on it, form not given); assay: Ba/F3-Δ19del/T790M/C797S cell proliferation assay (CellTiter Glo, 72 hours); type: cell-based; settings: Table 2, read-out: EGFR Δ19del/T790M/C797S IC50
In short: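 Ba/F3 cells stably overexpressing wild-type EGFR or EGFR Δ19del/T790M/C797S were seeded at 2000 cells/well and incubated 72 h with compound. Viability was read by CellTiter-Glo luminescence, and IC50 came from a four-parameter logistic fit of signal against log concentration.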

[6] = target: Ba/F3-EGFR wild-type cell line (Homo sapiens, UniProt P00533); assay: Ba/F3-EGFR wild-type cell proliferation assay (CellTiter Glo, 72 hours); type: cell-based; settings: Table 2, read-out: EGFR WT IC50
Procedure: Cell line: Ba/F3 cells with EGFR Δ19del/T790M/C797S mutation gene stably overexpressed named Ba/F3-Δ119del/T90M/C797S, and A431 and Ba/F3-EGFR wild-type cell line.
a) Centrifuge the growth cells in logarithmic phase at 1000 rpm for 5 minutes, resuspend the cells in culture medium, and then count the cells;
b) Inoculate the cells into a 96-well cell culture plate with a density of 2000 cells/well;
b) Incubate cells in an incubator for another 72 hours.
a) Take out the 96-well cell culture plate and add 50 μl CTG reagent (CellTiter Glo kit, promega, Cat #G7573);
b) Shake the plate for 2 minutes and let cool at room temperature for 10 minutes;
c) Read luminous signal value with PerkinElmer reader,
Analysis of Experimental Data
The data were analyzed by GraphPad Prism 6.0 software to obtain the fitting curve of compound activity.
Y=Min+(Max−Min)/(1+10^((Log IC50−X)*slope));
X: Logarithm of compound concentration; Y: luminous signal.

Chain of EGFR WT (P00533 25-1210): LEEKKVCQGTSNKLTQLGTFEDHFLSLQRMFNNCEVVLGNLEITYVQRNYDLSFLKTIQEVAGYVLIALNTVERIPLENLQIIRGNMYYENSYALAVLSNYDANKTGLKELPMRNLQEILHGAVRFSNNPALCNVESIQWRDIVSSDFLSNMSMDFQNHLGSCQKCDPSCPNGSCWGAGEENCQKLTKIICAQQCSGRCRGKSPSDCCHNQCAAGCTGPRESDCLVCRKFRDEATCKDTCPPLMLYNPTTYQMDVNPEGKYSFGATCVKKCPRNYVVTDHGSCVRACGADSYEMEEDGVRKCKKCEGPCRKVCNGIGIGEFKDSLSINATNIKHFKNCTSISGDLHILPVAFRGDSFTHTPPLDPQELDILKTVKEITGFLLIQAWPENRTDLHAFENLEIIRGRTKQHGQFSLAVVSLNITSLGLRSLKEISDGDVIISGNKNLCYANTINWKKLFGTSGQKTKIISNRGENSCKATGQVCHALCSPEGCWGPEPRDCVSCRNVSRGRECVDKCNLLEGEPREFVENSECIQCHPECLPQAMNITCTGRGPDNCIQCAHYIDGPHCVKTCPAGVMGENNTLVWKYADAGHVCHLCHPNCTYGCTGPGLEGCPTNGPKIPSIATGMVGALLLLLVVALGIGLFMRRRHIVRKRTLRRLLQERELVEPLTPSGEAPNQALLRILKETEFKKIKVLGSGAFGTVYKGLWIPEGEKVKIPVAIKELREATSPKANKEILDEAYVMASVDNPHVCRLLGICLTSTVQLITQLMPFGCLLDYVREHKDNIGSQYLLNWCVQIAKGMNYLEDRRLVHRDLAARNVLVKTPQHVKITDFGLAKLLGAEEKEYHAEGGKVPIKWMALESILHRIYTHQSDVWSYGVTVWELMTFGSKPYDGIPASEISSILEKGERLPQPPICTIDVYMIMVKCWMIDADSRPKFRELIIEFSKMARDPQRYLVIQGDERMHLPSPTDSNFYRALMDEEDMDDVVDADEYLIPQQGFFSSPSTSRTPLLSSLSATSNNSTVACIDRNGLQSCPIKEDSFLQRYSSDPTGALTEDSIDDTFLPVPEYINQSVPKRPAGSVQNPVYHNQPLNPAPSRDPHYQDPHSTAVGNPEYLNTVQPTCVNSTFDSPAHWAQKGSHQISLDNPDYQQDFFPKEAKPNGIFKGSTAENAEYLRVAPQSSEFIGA
Chain of Ba/F3 cells with EGFR Δ19del/T790M/C797S mutation gene stably overexpressed (P00533 with tags, fused parts or gaps DEL746-750/T790M/C797S, form open): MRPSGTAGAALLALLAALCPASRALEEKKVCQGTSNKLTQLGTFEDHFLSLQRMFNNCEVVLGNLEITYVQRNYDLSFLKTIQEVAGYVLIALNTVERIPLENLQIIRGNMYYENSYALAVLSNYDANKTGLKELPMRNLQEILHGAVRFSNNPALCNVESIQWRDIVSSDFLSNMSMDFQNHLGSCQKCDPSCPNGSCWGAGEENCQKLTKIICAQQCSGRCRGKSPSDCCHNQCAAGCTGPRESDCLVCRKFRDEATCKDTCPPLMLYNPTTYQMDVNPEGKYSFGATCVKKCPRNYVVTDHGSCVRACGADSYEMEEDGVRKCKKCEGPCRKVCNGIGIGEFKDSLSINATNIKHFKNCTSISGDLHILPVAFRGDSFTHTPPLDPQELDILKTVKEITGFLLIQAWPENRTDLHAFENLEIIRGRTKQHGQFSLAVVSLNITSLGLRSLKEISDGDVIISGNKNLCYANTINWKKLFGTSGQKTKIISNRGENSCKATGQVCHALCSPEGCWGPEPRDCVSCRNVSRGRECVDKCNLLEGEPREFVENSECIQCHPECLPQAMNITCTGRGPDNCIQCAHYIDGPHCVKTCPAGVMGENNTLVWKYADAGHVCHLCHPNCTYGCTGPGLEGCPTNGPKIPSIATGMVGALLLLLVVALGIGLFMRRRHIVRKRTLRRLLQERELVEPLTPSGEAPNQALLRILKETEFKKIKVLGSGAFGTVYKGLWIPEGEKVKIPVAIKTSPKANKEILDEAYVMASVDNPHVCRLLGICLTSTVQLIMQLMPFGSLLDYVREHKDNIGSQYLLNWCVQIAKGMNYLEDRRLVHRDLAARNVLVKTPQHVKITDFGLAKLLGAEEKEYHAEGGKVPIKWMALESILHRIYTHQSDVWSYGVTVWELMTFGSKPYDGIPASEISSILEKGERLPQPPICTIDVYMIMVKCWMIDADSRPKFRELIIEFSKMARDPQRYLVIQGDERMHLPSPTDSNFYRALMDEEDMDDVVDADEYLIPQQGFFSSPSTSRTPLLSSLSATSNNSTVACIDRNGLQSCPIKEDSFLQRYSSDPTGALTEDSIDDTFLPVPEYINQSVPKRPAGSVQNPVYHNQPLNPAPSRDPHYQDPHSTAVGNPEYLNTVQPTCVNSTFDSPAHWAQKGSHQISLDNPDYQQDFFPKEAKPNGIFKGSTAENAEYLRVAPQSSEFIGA
Chain of EGFRΔ19del/T790M/C797S (P00533 with tags, fused parts or gaps DEL746-750/T790M/C797S, form open): as above
Chain of Ba/F3-EGFR wild-type cell line (P00533 whole entry, stated change not applied): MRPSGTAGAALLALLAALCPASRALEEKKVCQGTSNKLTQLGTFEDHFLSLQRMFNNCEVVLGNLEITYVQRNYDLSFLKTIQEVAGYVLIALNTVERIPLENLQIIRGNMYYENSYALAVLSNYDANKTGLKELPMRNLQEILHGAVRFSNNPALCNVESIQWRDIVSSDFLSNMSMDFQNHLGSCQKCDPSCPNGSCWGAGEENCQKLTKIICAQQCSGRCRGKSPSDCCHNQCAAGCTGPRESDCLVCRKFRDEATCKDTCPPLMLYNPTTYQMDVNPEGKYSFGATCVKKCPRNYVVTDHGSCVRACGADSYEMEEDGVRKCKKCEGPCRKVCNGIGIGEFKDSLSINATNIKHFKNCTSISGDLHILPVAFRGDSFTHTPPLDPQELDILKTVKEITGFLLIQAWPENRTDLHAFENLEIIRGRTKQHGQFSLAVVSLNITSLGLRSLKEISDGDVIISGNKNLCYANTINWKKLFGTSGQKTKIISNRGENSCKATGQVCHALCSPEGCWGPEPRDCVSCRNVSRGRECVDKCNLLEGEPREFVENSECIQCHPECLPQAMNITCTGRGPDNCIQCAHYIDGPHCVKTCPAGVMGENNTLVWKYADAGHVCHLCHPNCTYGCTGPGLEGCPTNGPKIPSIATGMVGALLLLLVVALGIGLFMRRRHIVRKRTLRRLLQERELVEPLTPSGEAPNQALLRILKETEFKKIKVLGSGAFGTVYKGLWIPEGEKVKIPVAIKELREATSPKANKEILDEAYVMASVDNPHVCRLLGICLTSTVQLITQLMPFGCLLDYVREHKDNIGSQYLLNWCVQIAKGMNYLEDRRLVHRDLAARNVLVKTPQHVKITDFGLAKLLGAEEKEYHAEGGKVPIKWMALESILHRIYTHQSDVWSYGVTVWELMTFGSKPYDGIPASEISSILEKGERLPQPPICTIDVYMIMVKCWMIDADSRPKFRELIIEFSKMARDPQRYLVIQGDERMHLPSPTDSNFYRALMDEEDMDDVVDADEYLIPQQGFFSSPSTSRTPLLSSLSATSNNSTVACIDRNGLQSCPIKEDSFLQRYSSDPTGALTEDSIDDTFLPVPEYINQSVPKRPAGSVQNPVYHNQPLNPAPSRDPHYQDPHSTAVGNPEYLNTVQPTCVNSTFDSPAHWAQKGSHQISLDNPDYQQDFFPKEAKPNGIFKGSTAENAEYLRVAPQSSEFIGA

Compound | IC50 ([1]; Homo sapiens, A-431, 72 h) [nM] | IC50 [2] [nM] | IC50 [3] [nM] | IC50 [4] [nM] | GI50 [5] [nM] | GI50 [6] [nM] | IC50 [1] [nM]
CCc1cc(Nc2ncc(Br)c(Nc3ccc(-c4ccc(C)nn4)cc3P(C)(C)=O)n2)c(OC)cc1N1CCC(N2CCN(C)CC2)CC1 [Compound 33, (2-((5-Bromo-2-((5-ethyl-2-methoxy-4-(4-(4-methylpiperazin-1-yl)piperidin-1-yl)phenyl)amino)pyrimidin-4-yl)amino)-5-(6-methylpyridazin-3-yl)phenyl)dimethylphosphine oxide] | 962 | 27.3 | 177 | 0.3 | 13.5 | 437 | –
CCc1cc(Nc2ncc(Br)c(Nc3ccc(-c4cnc(OC)nc4)cc3P(C)(C)=O)n2)c(OC)cc1N1CCC(N2CCN(C)CC2)CC1 [Compound 34, (2-((5-Bromo-2-((5-ethyl-2-methoxy-4-(4-(4-methylpiperazin-1-yl)piperidin-1-yl)phenyl)amino)pyrimidin-4-yl)amino)-5-(2-methoxypyrimidin-5-yl)phenyl)dimethylphosphine oxide] | 5150 | 29.7 | 91.1 | 0.2 | 5.8 | 180 | –
CCc1cc(Nc2ncc(Br)c(Nc3ccc(-c4cnc(N(C)C)cn4)cc3P(C)(C)=O)n2)c(OC)cc1N1CCC(N2CCN(C)CC2)CC1 [Compound 35, (2-((5-Bromo-2-((5-ethyl-2-methoxy-4-(4-(4-methylpiperazin-1-yl)piperidin-1-yl)phenyl)amino)pyrimidin-4-yl)amino)-5-(5-(dimethylamino)pyrazin-2-yl)phenyl)dimethylphosphine oxide] | > 10000 | 21.5 | 238 | 0.5 | 3.1 | 259 | –
CCc1cc(Nc2ncc(Br)c(Nc3ccc(-c4cnc5c(ccn5C)c4)cc3P(C)(C)=O)n2)c(OC)cc1N1CCC(N2CCN(C)CC2)CC1 [Compound 55] | 2960 | 36.4 | 497 | 1.5 | 35 | 1070 | –
CCc1cc(Nc2ncc(Br)c(Nc3ccc(-c4cncc(OC)n4)cc3P(C)(C)=O)n2)c(OC)cc1N1CCC(N2CCN(C)CC2)CC1 [Compound 59, (2-((5-Bromo-2-((5-ethyl-2-methoxy-4-(4-(4-methylpiperazin-1-yl)piperidin-1-yl)phenyl)amino)pyrimidin-4-yl)amino)-5-(6-methoxypyrazin-2-yl)phenyl)dimethylphosphine oxide] | – | 41 | 395 | 1.3 | 26.3 | 1290 | 2300
CCc1cnc(-c2ccc(Nc3nc(Nc4cc(CC)c(N5CCC(N6CCN(C)CC6)CC5)cc4OC)ncc3Br)c(P(C)(C)=O)c2)nc1 [Compound 70] | 6290 | 38.6 | 246 | 0.9 | 9 | 407 | –
C#Cc1cnn(-c2ccc(Nc3nc(Nc4cc(CC)c(N5CCC(N6CCN(C)CC6)CC5)cc4OC)ncc3Br)c(P(C)(C)=O)c2)c1 [Compound K-009, (2-((5-Bromo-2-((5-ethyl-2-methoxy-4-(4-(4-methylpiperazin-1-yl)piperidin-1-yl)phenyl)amino)pyrimidin-4-yl)amino)-5-(4-ethynyl-1H-pyrazol-1-yl)phenyl)dimethylphosphine oxide] | 2460 | 21 | 165 | 0.23 | 16.4 | 268 | –
C#Cc1cnc(-c2ccc(Nc3nc(Nc4cc(CC)c(N5CCC(N6CCN(C)CC6)CC5)cc4OC)ncc3Br)c(P(C)(C)=O)c2)cn1 [Compound K-010, (2-((5-Bromo-2-((5-ethyl-2-methoxy-4-(4-(4-methylpiperazin-1-yl)piperidin-1-yl)phenyl)amino)pyrimidin-4-yl)amino)-5-(5-ethynylpyrazin-2-yl)phenyl)dimethylphosphine oxide] | 693 | 17 | 46 | 0.4 | 7.2 | 52.8 | –
C#Cc1cnc(-c2ccc(Nc3nc(Nc4cc(C)c(N5CCC(N6CCN(C)CC6)CC5)cc4OC)ncc3Br)c(P(C)(C)=O)c2)cn1 [Compound K-011] | 4450 | 28 | 104 | 0.45 | 7.4 | 81.8 | –

Stronger by IC50 [2], values ahead:

IC50 ([1]; Homo sapiens, A-431, 72 h) [nM] | IC50 [2] [nM] | IC50 [3] [nM] | IC50 [4] [nM] | GI50 [5] [nM] | GI50 [6] [nM] | IC50 [1] [nM] | Compound
2380 | 11.5 | 124 | 0.2 | 9.5 | 166 | – | CCc1cc(Nc2ncc(Br)c(Nc3ccc(-n4cc(F)cn4)cc3P(C)(C)=O)n2)c(OC)cc1N1CCC(N2CCN(C)CC2)CC1 [Compound 44, (2-((5-Bromo-2-((5-ethyl-2-methoxy-4-(4-(4-methylpiperazin-1-yl)piperidin-1-yl)phenyl)amino)pyrimidin-4-yl)amino)-5-(4-fluoro-1H-pyrazol-1-yl)phenyl)dimethylphosphine oxide]
> 10000 | 16 | 91 | 0.5 | 16.8 | 1010 | – | CCOc1cnc(-c2ccc(Nc3nc(Nc4cc(CC)c(N5CCC(N6CCN(C)CC6)CC5)cc4OC)ncc3Br)c(P(C)(C)=O)c2)nc1 [Compound 75]
1090 | 12.6 | 94 | 0.2 | 7.2 | 134 | – | CCc1cc(Nc2ncc(Br)c(Nc3ccc(-c4cnccn4)cc3P(C)(C)=O)n2)c(OC)cc1N1CCC(N2CCN(C)CC2)CC1 [Compound 78, (2-((5-Bromo-2-((5-ethyl-2-methoxy-4-(4-(4-methylpiperazin-1-yl)piperidin-1-yl)phenyl)amino)pyrimidin-4-yl)amino)-5-(pyrazin-2-yl)phenyl)dimethylphosphine oxide]
1440 | 5.2 | 54.9 | 0.1 | 3.2 | 130 | – | CCc1cc(Nc2ncc(Br)c(Nc3ccc(-c4cnn(C)n4)c(F)c3P(C)(C)=O)n2)c(OC)cc1N1CCC(N2CCN(C)CC2)CC1 [Compound K-007, (6-((5-Bromo-2-((5-ethyl-2-methoxy-4-(4-(4-methylpiperazin-1-yl)piperidin-1-yl)phenyl)amino)pyrimidin-4-yl)amino)-2-fluoro-3-(2-methyl-2H-1,2,3-triazol-4-yl)phenyl)dimethylphosphine oxide]
415 | 15 | 120 | 0.24 | 4.8 | 169 | – | COc1cc(N2CCC(N3CCN(C)CC3)CC2)c(C)cc1Nc1ncc(Br)c(Nc2ccc(-c3cnn(C)n3)cc2P(C)(C)=O)n1 [Compound K-008, (2-((5-Bromo-2-((2-methoxy-5-methyl-4-(4-(4-methylpiperazin-1-yl)piperidin-1-yl)phenyl)amino)pyrimidin-4-yl)amino)-5-(2-methyl-2H-1,2,3-triazol-4-yl)phenyl)dimethylphosphine oxide]
5220 | 12 | 35 | 0.19 | 2.6 | 46 | – | COc1cc(Nc2ncc(Br)c(Nc3ccc(-c4cnn(C)n4)c(F)c3P(C)(C)=O)n2)c(C)cc1N1CCC(N2CCN(C)CC2)CC1 [Compound K-012, (6-((5-Bromo-2-((5-methoxy-2-methyl-4-(4-(4-methylpiperazin-1-yl)piperidin-1-yl)phenyl)amino)pyrimidin-4-yl)amino)-2-fluoro-3-(2-methyl-2H-1,2,3-triazol-4-yl)phenyl)diniethylphosphine oxide]
